Test results taken from the supplement of paper PMC6045584.
± gives the standard deviation of the averaged measurements.

Key:
[1] = compound: CCn1c(C(=O)N(C2CC2)C2CC2)cc2c3c(ncn3C)c(Nc3cc(C)n(C)n3)nc21; experiment: surviving fraction relative to DMSO-only wells; higher = less growth inhibition; settings: exposure time: 5 days
Method in brief: (§1)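 Surviving fraction was calculated by normalising CellTiter-Glo luminescence to the median of DMSO-only wells. Tumour cell lines in log phase were seeded in 384-well plates at 250–500 cells per well, and 24 hours later were exposed continuously for five days to inhibitors at 0.5, 1, 5, 10, 50, 100, 500 and 1000 nM.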

ABIRATERONE = compound: C[C@]12CC[C@H](O)CC1=CC[C@@H]1[C@@H]2CC[C@]2(C)C(c3cccnc3)=CC[C@@H]12 [ABIRATERONE]; experiment: as above; settings: exposure time: 5 days
Method in brief: as §1

| Test System | surviving fraction ([1]; 0.5 nM) | surviving fraction ([1]; 1 nM) | surviving fraction ([1]; 5 nM) | surviving fraction ([1]; 10 nM) | surviving fraction ([1]; 50 nM) | surviving fraction ([1]; 100 nM) | surviving fraction ([1]; 500 nM) | surviving fraction ([1]; 1000 nM) | surviving fraction (ABIRATERONE; 0.5 nM) | surviving fraction (ABIRATERONE; 1 nM) | surviving fraction (ABIRATERONE; 5 nM) | surviving fraction (ABIRATERONE; 10 nM) | surviving fraction (ABIRATERONE; 50 nM) | surviving fraction (ABIRATERONE; 100 nM) | surviving fraction (ABIRATERONE; 500 nM) | surviving fraction (ABIRATERONE; 1000 nM) |
| --- | --- | --- | --- | --- | --- | --- | --- | --- | --- | --- | --- | --- | --- | --- | --- | --- |
| SNU475 LIVER | 0.974 ± 0.012 | 0.957 ± 0.049 | 0.973 ± 0.025 | 0.989 ± 0.026 | 0.979 ± 0.051 | 0.959 ± 0.017 | 0.938 ± 0.0085 | 0.895 ± 0.039 | 1.03 ± 0.024 | 1.07 ± 0.035 | 1.05 ± 0.035 | 1.06 ± 0.045 | 1.02 ± 0.03 | 1.02 ± 0.071 | 1 ± 0.085 | 1.04 ± 0.016 |
| CASKI CERVIX | 0.85 ± 0.039 | 0.932 ± 0.015 | 0.972 ± 0.055 | 0.946 ± 0.073 | 0.994 ± 0.049 | 1 ± 0.062 | 0.985 ± 0.029 | 1.04 ± 0.06 | 0.924 ± 0.015 | 0.884 ± 0.044 | 1.04 ± 0.1 | 1.03 ± 0.018 | 1.08 ± 0.027 | 1.1 ± 0.014 | 1.09 ± 0.032 | 1.11 ± 0.05 |
| SUM149.B1*.S BREAST | 1.05 ± 0.053 | 0.99 ± 0.02 | 1.05 ± 0.014 | 1 ± 0.013 | 1.08 ± 0.045 | 1.11 ± 0.018 | 1.07 ± 0.011 | 1.08 ± 0.033 | 1.11 ± 0.055 | 1.11 ± 0.047 | 1.2 ± 0.05 | 1.12 ± 0.071 | 1.21 ± 0.062 | 1.21 ± 0.074 | 1.19 ± 0.028 | 1.2 ± 0.078 |
| OS25HAL BONE | 0.9497 ± 0.005 | 0.953 ± 0.018 | 0.945 ± 0.015 | 0.952 ± 0.022 | 1.04 ± 0.024 | 1.045 ± 0.0067 | 1.018 ± 0.0064 | 1.01 ± 0.011 | 1.02 ± 0.02 | 1.01 ± 0.011 | 1.039 ± 0.0055 | 0.989 ± 0.021 | 1.106 ± 0.0096 | 1.08 ± 0.017 | 1.07 ± 0.053 | 1.07 ± 0.034 |
| MDAMB436 BREAST | 0.857 ± 0.024 | 0.807 ± 0.1 | 0.8337 ± 0.0019 | 0.877 ± 0.086 | 0.926 ± 0.029 | 0.946 ± 0.12 | 0.983 ± 0.13 | 0.941 ± 0.033 | 0.954 ± 0.13 | 0.934 ± 0.063 | 0.915 ± 0.083 | 0.93 ± 0.061 | 1.02 ± 0.049 | 0.895 ± 0.052 | 0.953 ± 0.035 | 0.894 ± 0.037 |
| LM7 BONE | 0.967 ± 0.042 | 0.976 ± 0.03 | 1.07 ± 0.041 | 1.03 ± 0.097 | 1.04 ± 0.047 | 1.06 ± 0.073 | 0.994 ± 0.12 | 0.896 ± 0.03 | 0.954 ± 0.014 | 0.963 ± 0.097 | 1.07 ± 0.15 | 1.01 ± 0.026 | 1.05 ± 0.021 | 1.06 ± 0.094 | 0.97 ± 0.058 | 0.979 ± 0.038 |
| HELA CERVIX | 1 ± 0.096 | 0.998 ± 0.036 | 0.939 ± 0.059 | 0.953 ± 0.044 | 1.09 ± 0.033 | 1.04 ± 0.026 | 1.05 ± 0.037 | 1.1 ± 0.09 | 1.08 ± 0.068 | 1.07 ± 0.037 | 1.1 ± 0.032 | 1.03 ± 0.023 | 1.2 ± 0.048 | 1.2 ± 0.062 | 1.23 ± 0.074 | 1.15 ± 0.055 |
| 93VU HEADNECK | 0.879 ± 0.12 | 0.834 ± 0.051 | 1.05 ± 0.031 | 0.976 ± 0.029 | 1.06 ± 0.042 | 1.04 ± 0.1 | 0.832 ± 0.027 | 0.775 ± 0.11 | 1.2 ± 0.027 | 1.15 ± 0.12 | 1.12 ± 0.031 | 1.2 ± 0.024 | 1.32 ± 0.038 | 1.19 ± 0.056 | 1.17 ± 0.12 | 1.11 ± 0.12 |
| ZR751 BREAST | 0.982 ± 0.19 | 0.864 ± 0.032 | 0.877 ± 0.11 | 0.99 ± 0.057 | 0.894 ± 0.095 | 0.8 ± 0.031 | 0.812 ± 0.027 | 0.772 ± 0.12 | 1.1 ± 0.11 | 1.18 ± 0.16 | 1.15 ± 0.1 | 1.19 ± 0.099 | 1.09 ± 0.19 | 1.08 ± 0.17 | 0.854 ± 0.13 | 0.731 ± 0.21 |
| S68 BREAST | 1.1 ± 0.39 | 0.683 ± 0.17 | 0.816 ± 0.16 | 0.974 ± 0.13 | 1.35 ± 0.11 | 0.945 ± 0.054 | 0.823 ± 0.016 | 0.817 ± 0.11 | 0.939 ± 0.22 | 0.785 ± 0.063 | 1.21 ± 0.21 | 0.925 ± 0.098 | 1.17 ± 0.021 | 1.17 ± 0.092 | 0.942 ± 0.15 | 0.878 ± 0.17 |
| SCC003 HEADNECK | 0.92 ± 0.15 | 0.937 ± 0.047 | 1.02 ± 0.095 | 0.968 ± 0.015 | 1.11 ± 0.099 | 1.12 ± 0.12 | 0.917 ± 0.12 | 0.928 ± 0.045 | 1.15 ± 0.044 | 1.11 ± 0.14 | 1.09 ± 0.08 | 1.14 ± 0.065 | 1.27 ± 0.084 | 1.13 ± 0.088 | 1.19 ± 0.042 | 1.1 ± 0.034 |
| 22RV1 PROSTATE | 0.972 ± 0.044 | 1.03 ± 0.037 | 0.975 ± 0.019 | 1.02 ± 0.017 | 1.07 ± 0.031 | 1.03 ± 0.079 | 1.07 ± 0.018 | 1.08 ± 0.064 | 1.06 ± 0.047 | 1.09 ± 0.086 | 1.07 ± 0.062 | 1.09 ± 0.047 | 1.11 ± 0.029 | 1.09 ± 0.051 | 1.17 ± 0.067 | 1.08 ± 0.054 |
| A549 LUNG | 0.956 ± 0.034 | 0.941 ± 0.018 | 0.949 ± 0.02 | 0.963 ± 0.022 | 0.958 ± 0.057 | 1.024 ± 0.0095 | 1 ± 0.084 | 1.02 ± 0.03 | 1.04 ± 0.05 | 1.03 ± 0.059 | 1.05 ± 0.01 | 1.04 ± 0.045 | 1.1 ± 0.049 | 1.11 ± 0.019 | 1.08 ± 0.12 | 1.09 ± 0.087 |
| SG43 HEADNECK | 1.02 ± 0.22 | 1.02 ± 0.15 | 0.746 ± 0.015 | 0.935 ± 0.19 | 1.08 ± 0.27 | 0.767 ± 0.2 | 0.962 ± 0.31 | 0.784 ± 0.22 | 1.23 ± 0.2 | 1.1 ± 0.39 | 0.922 ± 0.036 | 0.934 ± 0.21 | 1.02 ± 0.51 | 0.995 ± 0.12 | 0.967 ± 0.13 | 0.987 ± 0.2 |
| JURKAT HAEMATOPOIETIC AND LYMPHOID TISSUE | 1.092 ± 0.0091 | 1.08 ± 0.017 | 1.09 ± 0.021 | 1.05 ± 0.037 | 1.05 ± 0.036 | 1.04 ± 0.034 | 1.08 ± 0.018 | 1.09 ± 0.014 | 1.09 ± 0.027 | 1.106 ± 0.0066 | 1.09 ± 0.022 | 1.07 ± 0.016 | 1.08 ± 0.018 | 1.03 ± 0.037 | 1.01 ± 0.022 | 0.995 ± 0.029 |
| 143B BONE | 1 ± 0.0057 | 1 ± 0.03 | 1.02 ± 0.012 | 0.9945 ± 0.005 | 1.04 ± 0.025 | 1.02 ± 0.02 | 1.01 ± 0.026 | 1.023 ± 0.0099 | 1.04 ± 0.013 | 1.046 ± 0.005 | 1.05 ± 0.023 | 1.03 | 1.06 ± 0.035 | 1.07 ± 0.035 | 1.02 ± 0.012 | 1.01 ± 0.029 |
